The source of these data is patent US6686343B1, “Triazolopurine derivatives, pharmaceutical compositions containing the derivatives, and adenosine A3 receptor affinitive agents” (Otsuka Pharmaceutical Factory, Inc., priority 1999, dated 2004).

Structures are written as SMILES.

As to `CCOP(=O)(Cc1nc2nc[nH]c2c2nc(-c3ccc(-c4ccccc4)cc3)nn12)OCC`, the melting point is 188 to 192 °C.
For `CCOP(=O)(CCc1nc2nc[nH]c2c2nc(-c3ccc(-c4ccccc4)cc3)nn12)OCC` the value was not below 110 °C.
`CCOP(=O)(Cc1nc2nc[nH]c2c2nc(-c3ccc(C(C)(C)C)cc3)nn12)OCC` returned a melting point of 162 to 166 °C.
For `CCOP(=O)(Cc1nc2nc[nH]c2c2nc(-c3ccc(C(F)(F)F)cc3)nn12)OCC` the value was 196 to 198 °C; for `CCOP(=O)(CCCc1nc2nc[nH]c2c2nc(-c3ccc(-c4ccccc4)cc3)nn12)OCC`, 175 to 178 °C.
For `CCOP(=O)(O)Cc1nc2nc[nH]c2c2nc(-c3ccc(C(F)(F)F)cc3)nn12`, the melting point was 268 to 270 °C.
For `CCOP(=O)(O)Cc1nc2nc[nH]c2c2nc(-c3ccc(-c4ccccc4)cc3)nn12` the value was 274 to 277 °C.
For `COCCc1nc2nc[nH]c2c2nc(-c3ccccc3)nn12` (hydrate or solvate) [Example 13, 5-(2-methoxyethyl)-8-phenyl-1H-1,2,4-triazolo[5,1-i]purine] the value was 217.5 to 218.5 °C; for `COCc1nc2nc[nH]c2c2nc(-c3ccc(-c4ccccc4)cc3)nn12` [Example 2, 8-(4-biphenylyl)-5-methoxymethyl-1H-1,2,4-triazolo[5,1-i]purine], not below 280 °C.
For `CSCCc1nc2nc[nH]c2c2nc(-c3ccc(-c4ccccc4)cc3)nn12` [Example 4, 8-(4-biphenylyl)-5-(2-methylthioethyl)-1H-1,2,4-triazolo[5,1-i]purine] the value was 249 to 251 °C; for `CCOCc1nc2nc[nH]c2c2nc(-c3cc(OC)c(OC)c(OC)c3)nn12` [Example 5, 5-ethoxymethyl-8-(3,4,5-trimethoxyphenyl)-1H-1,2,4-triazolo[5,1-i]purine], 254 to 255.5 °C; for `COCc1nc2nc[nH]c2c2nc(-c3cc(OC)c(OC)c(OC)c3)nn12` [Example 6, 5-methoxymethyl-8-(3,4,5-trimethoxyphenyl)-1H-1,2,4-triazolo[5,1-i]purine], not below 280 °C.
Consider `CCCOc1ccc(-c2nc3c4[nH]cnc4nc(COCC)n3n2)cc1` [Example 8, 5-ethoxymethyl-8-(4-n-propoxyphenyl)-1H-1,2,4-triazolo[5,1-i]purine], for which the melting point is 262 to 263 °C.
For `CCCOc1ccc(-c2nc3c4[nH]cnc4nc(COC)n3n2)cc1` [Example 9, 5-methoxymethyl-8-(4-n-propoxyphenyl)-1H-1,2,4-triazolo[5,1-i]purine] the value was not below 280 °C.
For `CCCOc1ccc(-c2nc3c4[nH]cnc4nc(CCOC)n3n2)cc1` [Example 10, 5-(2-methoxyethyl)-8-(4-n-propoxyphenyl)-1H-1,2,4-triazolo[5,1-i]purine] the value was 231.5 to 232.5 °C.
For `CCOCc1nc2nc[nH]c2c2nc(-c3ccccc3)nn12` [Example 11, 5-ethoxymethyl-8-phenyl-1H-1,2,4-triazolo[5,1-i]purine] the value was 247 to 249 °C.
As for `COCc1nc2nc[nH]c2c2nc(-c3ccccc3)nn12` [Example 12, 5-methoxymethyl-8-phenyl-1H-1,2,4-triazolo[5,1-i]purine], the melting point is not below 280 °C.
The compound `CCOCc1nc2nc[nH]c2c2nc(-c3ccc(C(C)(C)C)cc3)nn12` [Example 14, 8-(4-t-butylphenyl)-5-ethoxymethyl-1H-1,2,4-triazolo[5,1-i]purine] registered a melting point of 243 to 244 °C.
For `COCc1nc2nc[nH]c2c2nc(-c3ccc(C(C)(C)C)cc3)nn12` [Example 15, 8-(4-t-butylphenyl)-5-methoxymethyl-1H-1,2,4-triazolo[5,1-i]purine] the value was not below 280 °C; for `COCCc1nc2nc[nH]c2c2nc(-c3ccc(C(C)(C)C)cc3)nn12` [Example 16, 8-(4-t-butylphenyl)-5-(2-methoxyethyl)-1H-1,2,4-triazolo[5,1-i]purine], 237 to 239 °C; for `CSCCc1nc2nc[nH]c2c2nc(-c3ccc(C(C)(C)C)cc3)nn12` [Example 17, 8-(4-t-butylphenyl)-5-(2-methylthioethyl)-1H-1,2,4-triazolo[5,1-i]purine], 229 to 231 °C.
In turn, `COC(=O)CCCc1nc2nc[nH]c2c2nc(-c3ccccc3)nn12` [Example 18, 5-(3-methoxycarbonylpropyl)-8-phenyl-1H-1,2,4-triazolo[5,1-i]purine] gave a melting point of 228 to 230 °C.
For `COc1cc(-c2nc3c4[nH]cnc4nc(CCSC)n3n2)cc(OC)c1OC` [Example 19, 5-(2-methylthioethyl)-8-(3,4,5-trimethoxyphenyl)-1H-1,2,4-triazolo[5,1-i]purine] the value was 233 to 234 °C; for `CCOC(=O)CCc1nc2nc[nH]c2c2nc(-c3ccc(-c4ccccc4)cc3)nn12` [Example 20, 8-(4-biphenylyl)-5-(2-ethoxycarbonylethyl)-1H-1,2,4-triazolo[5,1-i]purine], 241.5 to 244 °C; for `COC(=O)CCCc1nc2nc[nH]c2c2nc(-c3ccc(-c4ccccc4)cc3)nn12` [Example 21, 8-(4-biphenylyl)-5-(3-methoxycarbonylpropyl)-1H-1,2,4-triazolo[5,1-i]purine], 243 to 245.5 °C.
Turning to `CCOC(=O)CCCCc1nc2nc[nH]c2c2nc(-c3ccc(-c4ccccc4)cc3)nn12` [Example 22, 8-(4-biphenylyl)-5-(4-ethoxycarbonylbutyl)-1H-1,2,4-triazolo[5,1-i]purine], the melting point lay within 241 to 243 °C.
As to `COC(=O)CCCc1nc2nc[nH]c2c2nc(-c3ccc(C(C)(C)C)cc3)nn12` [Example 23, 8-(4-t-butylphenyl)-5-(3-methoxycarbonylpropyl)-1H-1,2,4-triazolo[5,1-i]purine], the melting point is 169 to 172.5 °C.
Turning to `COCc1nc2nc[nH]c2c2nc(-c3ccc(C(F)(F)F)cc3)nn12` [Example 24, 5-methoxymethyl-8-(4-trifluoromethylphenyl)-1H-1,2,4-triazolo[5,1-i]purine], the melting point was not below 280 °C.
For `CCOCc1nc2nc[nH]c2c2nc(-c3ccc(C(F)(F)F)cc3)nn12` [Example 25, 5-ethoxymethyl-8-(4-trifluoromethylphenyl)-1H-1,2,4-triazolo[5,1-i]purine] the value was not below 280 °C; for `COCCc1nc2nc[nH]c2c2nc(-c3ccc(C(F)(F)F)cc3)nn12` [Example 26, 5-(2-methoxyethyl)-8-(4-trifluoromethylphenyl)-1H-1,2,4-triazolo[5,1-i]purine], ≥ 256 °C (dec.).
For `CSCCc1nc2nc[nH]c2c2nc(-c3ccc(C(F)(F)F)cc3)nn12` [Example 27, 5-(2-methylthioethyl)-8-(4-trifluoromethylphenyl)-1H-1,2,4-triazolo[5,1-i]purine] the value was ≥ 255 °C (dec.); for `COCCc1nc2nc[nH]c2c2nc(-c3ccc(Cl)cc3)nn12` [Example 28, 8-(4-chlorophenyl)-5-(2-methoxyethyl)-1H-1,2,4-triazolo[5,1-i]purine], ≥ 278 °C (dec.).
Consider `CSCCc1nc2nc[nH]c2c2nc(-c3ccc(Cl)cc3)nn12` [Example 29, 8-(4-chlorophenyl)-5-(2-methylthioethyl)-1H-1,2,4-triazolo[5,1-i]purine], for which the melting point is ≥ 257 °C (dec.).
For the compound `COC(=O)CCCc1nc2nc[nH]c2c2nc(-c3ccc(Cl)cc3)nn12` [Example 30, 8-(4-chlorophenyl)-5-(3-methoxycarbonylpropyl)-1H-1,2,4-triazolo[5,1-i]purine], the melting point lay within 261 to 262.5 °C.
The compound `CC(C)(C)c1ccc(-c2nc3c4[nH]cnc4nc(CCCC(=O)O)n3n2)cc1` [Example 35, 8-(4-t-butylphenyl)-5-(3-carboxypropyl)-1H-1,2,4-triazolo[5,1-i]purine] displayed a melting point not below 280 °C.
For the compound `C[S+]([O-])CCc1nc2nc[nH]c2c2nc(-c3ccc(Cl)cc3)nn12` (centres unmarked) [Example 38, 8-(4-chlorophenyl)-5-(2-methylsulfinylethyl)-1H-1,2,4-triazolo[5,1-i]purine], the melting point was ≥ 218 °C (dec.).
For `C[S+]([O-])CCc1nc2nc[nH]c2c2nc(-c3ccc(C(C)(C)C)cc3)nn12` (centres unmarked) [Example 39, 8-(4-t-butylphenyl)-5-(2-methylsulfinylethyl)-1H-1,2,4-triazolo[5,1-i]purine] the value was ≥ 162 °C (dec.); for `C[S+]([O-])CCc1nc2nc[nH]c2c2nc(-c3ccc(C(F)(F)F)cc3)nn12` (centres unmarked) [Example 40, 5-(2-methylsulfinylethyl)-8-(4-trifluoromethylphenyl)-1H-1,2,4-triazolo[5,1-i]purine], ≥ 203 °C (dec.).
With `CS(=O)(=O)CCc1nc2nc[nH]c2c2nc(-c3ccc(Cl)cc3)nn12` [Example 42, 8-(4-chlorophenyl)-5-(2-methylsulfonylethyl)-1H-1,2,4-triazolo[5,1-i]purine], the melting point was ≥ 244 °C (dec.).
For `CC(C)(C)c1ccc(-c2nc3c4[nH]cnc4nc(CCS(C)(=O)=O)n3n2)cc1` [Example 43, 8-(4-t-butylphenyl)-5-(2-methylsulfonylethyl)-1H-1,2,4-triazolo[5,1-i]purine] the value was ≥ 201 °C (dec.); for `CS(=O)(=O)CCc1nc2nc[nH]c2c2nc(-c3ccc(C(F)(F)F)cc3)nn12` [Example 44, 5-(2-methylsulfonylethyl)-8-(4-trifluoromethylphenyl)-1H-1,2,4-triazolo[5,1-i]purine], ≥ 261 °C (dec.).
For `c1ccc(-c2ccc(-c3nc4c5[nH]cnc5nc(C5CCCCC5)n4n3)cc2)cc1` [Example 45, 8-(4-biphenylyl)-5-cyclohexyl-1H-1,2,4-triazolo[5,1-i]purine] the value was not below 280 °C.
For `c1ccc(-c2ccc(-c3nc4c5[nH]cnc5nc(C5CCCC5)n4n3)cc2)cc1` [Example 46, 8-(4-biphenylyl)-5-cyclopentyl-1H-1,2,4-triazolo[5,1-i]purine] the value was not below 280 °C; for `FC(F)(F)c1nc2nc[nH]c2c2nc(-c3ccc(-c4ccccc4)cc3)nn12` [Example 47, 8-(4-biphenylyl)-5-trifluoromethyl-1H-1,2,4-triazolo[5,1-i]purine], not below 280 °C.

As usually defined, the melting point is the temperature of the solid-liquid transition.
